Measured values reported in ChEMBL document CHEMBL3286217, “Structure-based efforts to optimize a non-β-lactam inhibitor of AmpC β-lactamase” (Bioorg Med Chem, 2014).

How the values were obtained:
[1] = Inhibition of beta-lactamase AmpC (unknown origin) by UV-Vis spectrophotometry
[2] = Competitive inhibition of beta-lactamase AmpC (unknown origin) by Lineweaver-Burk plot analysis
[3] = Reversible competitive inhibition of beta-lactamase AmpC (unknown origin)

Compound	Ki [1] [µM]	other results
O=C(O)c1ccc(NS(=O)(=O)c2ccsc2C(=O)O)cc1	1.7	–
Cc1ccc(CNS(=O)(=O)c2ccsc2C(=O)O)cc1	58	–
O=C(O)c1sccc1S(=O)(=O)NCc1ccc(Cl)cc1	112	–
O=C(O)c1ccc(CNS(=O)(=O)c2ccsc2C(=O)O)cc1	18	–
O=C(O)c1ccc(CCNS(=O)(=O)c2ccsc2C(=O)O)cc1	–	Ki [2]: 26 µM
O=C(O)c1ccc(CCCNS(=O)(=O)c2ccsc2C(=O)O)cc1	19	–
O=C(O)c1sccc1S(=O)(=O)Nc1ccc(Cl)cc1	–	Ki [3]: 26 µM
